Assay results as given in PMC8231556, “Inhibiting Endothelial Cell Function in Normal and Tumor Angiogenesis Using BMP Type I Receptor Macrocyclic Kinase Inhibitors” (Cancers, 2021).

Tests used:
Assay in all cases: radiometric kinase profiling (33 PanQinase)
Assay type in all cases: biochemical
[1] = target: T1, CDK8_cyclinC (Homo sapiens, UniProt P49336); settings: read-out: Inhibitory effect (%) CDK8_cyclinC
T1 construct: purchased Proqinase, Germany
Procedure: (§1) The kinase inhibition profile of the compounds was determined by testing 96 protein kinases’ activity using a radiometric protein kinase assay (33 PanQinase® Activity Assay, Proqinase, Germany). In brief, 10 µL of non-radioactive ATP solution (in H2O), 25 µL of assay buffer/[γ-33 P]-ATP mixture, 5 µL of 0.1 μM the tested compound in 10% DMSO and 10 µL of enzyme/substrate were mixed in 96-well FlashPlatesTM (Perkin Elmer, Boston, MA, USA). The reaction was conducted at 30 °C for 60 min. To stop the reaction, 50 µL of 2% (v/v) H3PO4 was added into the protein kinase reaction cocktails. After which, with 200 µL 0.9% (w/v) NaCl twice, the incorporation of ^33 Pi (counting of “cpm”) was determined with a microplate scintillation counter (Wallac Microbeta, Boston, MA, USA). All protein kinase assays were performed using a BeckmanCoulter Biomek 2000/SL robotic system (Brea, CA, USA). The residual activity (in %) for each compound was normalized to 100% enzyme activity (untreated control) and background (negative control).

[2] = target: T2, KIT (Homo sapiens, UniProt P10721); settings: read-out: Inhibitory effect (%) KIT
T2 construct: purchased ProQinase (33PanQinase Activity Assay)
T2 sequence (P10721 26-976): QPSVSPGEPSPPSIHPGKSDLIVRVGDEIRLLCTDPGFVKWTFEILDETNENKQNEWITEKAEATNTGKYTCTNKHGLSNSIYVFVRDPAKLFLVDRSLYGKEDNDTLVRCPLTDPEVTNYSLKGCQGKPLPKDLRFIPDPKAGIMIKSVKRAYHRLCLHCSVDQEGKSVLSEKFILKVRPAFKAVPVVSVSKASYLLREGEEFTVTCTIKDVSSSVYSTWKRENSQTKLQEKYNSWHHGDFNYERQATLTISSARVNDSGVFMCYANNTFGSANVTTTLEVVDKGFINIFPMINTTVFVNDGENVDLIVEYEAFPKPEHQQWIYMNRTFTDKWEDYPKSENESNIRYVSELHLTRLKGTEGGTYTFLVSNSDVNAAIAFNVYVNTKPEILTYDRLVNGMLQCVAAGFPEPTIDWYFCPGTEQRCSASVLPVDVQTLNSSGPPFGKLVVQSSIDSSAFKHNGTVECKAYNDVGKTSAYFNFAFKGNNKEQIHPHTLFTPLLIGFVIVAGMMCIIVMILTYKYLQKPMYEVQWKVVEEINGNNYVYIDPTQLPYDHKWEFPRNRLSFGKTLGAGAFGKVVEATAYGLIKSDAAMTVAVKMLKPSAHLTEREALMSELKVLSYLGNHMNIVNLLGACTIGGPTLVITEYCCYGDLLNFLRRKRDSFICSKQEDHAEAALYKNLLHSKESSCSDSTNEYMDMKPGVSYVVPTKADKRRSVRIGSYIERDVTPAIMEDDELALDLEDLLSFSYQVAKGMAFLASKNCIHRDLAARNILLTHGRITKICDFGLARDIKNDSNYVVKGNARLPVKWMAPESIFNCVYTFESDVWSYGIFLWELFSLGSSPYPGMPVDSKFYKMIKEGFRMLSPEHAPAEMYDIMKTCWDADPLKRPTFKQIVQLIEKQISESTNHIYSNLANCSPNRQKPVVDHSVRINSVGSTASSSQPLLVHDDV
Procedure: as §1

[3] = target: T3, CSNK2A1 (Homo sapiens, UniProt P68400); settings: read-out: Inhibitory effect (%) CSNK2A1
T3 construct: purchased Proqinase, Germany
T3 sequence (P68400 whole entry): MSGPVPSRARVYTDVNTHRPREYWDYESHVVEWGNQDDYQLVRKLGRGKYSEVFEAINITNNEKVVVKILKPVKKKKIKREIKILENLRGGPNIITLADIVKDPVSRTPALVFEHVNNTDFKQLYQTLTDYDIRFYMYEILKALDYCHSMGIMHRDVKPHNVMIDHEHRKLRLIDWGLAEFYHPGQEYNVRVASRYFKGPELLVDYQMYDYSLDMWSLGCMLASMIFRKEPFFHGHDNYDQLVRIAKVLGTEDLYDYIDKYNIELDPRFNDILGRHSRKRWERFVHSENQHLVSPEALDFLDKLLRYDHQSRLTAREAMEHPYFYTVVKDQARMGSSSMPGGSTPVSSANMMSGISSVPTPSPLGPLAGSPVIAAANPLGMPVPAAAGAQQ
Procedure: as §1

[4] = target: T4, MAP3K7 (Homo sapiens, UniProt O43318); settings: read-out: Inhibitory effect (%) MAP3K7
T4 construct: purchased ProQinase (33PanQinase Activity Assay)
T4 sequence (O43318 1-303 limits assumed): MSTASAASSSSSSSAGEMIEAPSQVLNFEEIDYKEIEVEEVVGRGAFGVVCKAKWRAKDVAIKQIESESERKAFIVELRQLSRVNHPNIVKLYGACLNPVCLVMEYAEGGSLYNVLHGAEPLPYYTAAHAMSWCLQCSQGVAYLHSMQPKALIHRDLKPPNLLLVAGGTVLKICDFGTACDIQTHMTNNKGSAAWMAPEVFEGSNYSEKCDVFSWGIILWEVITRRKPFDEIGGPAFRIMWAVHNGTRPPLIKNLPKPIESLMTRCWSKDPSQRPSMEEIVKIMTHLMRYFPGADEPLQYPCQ
Procedure: as §1

[5] = target: T5, DDR2 (Homo sapiens, UniProt Q16832); settings: read-out: Inhibitory effect (%) DDR2
T5 construct: purchased Proqinase, Germany
T5 sequence (Q16832 22-855): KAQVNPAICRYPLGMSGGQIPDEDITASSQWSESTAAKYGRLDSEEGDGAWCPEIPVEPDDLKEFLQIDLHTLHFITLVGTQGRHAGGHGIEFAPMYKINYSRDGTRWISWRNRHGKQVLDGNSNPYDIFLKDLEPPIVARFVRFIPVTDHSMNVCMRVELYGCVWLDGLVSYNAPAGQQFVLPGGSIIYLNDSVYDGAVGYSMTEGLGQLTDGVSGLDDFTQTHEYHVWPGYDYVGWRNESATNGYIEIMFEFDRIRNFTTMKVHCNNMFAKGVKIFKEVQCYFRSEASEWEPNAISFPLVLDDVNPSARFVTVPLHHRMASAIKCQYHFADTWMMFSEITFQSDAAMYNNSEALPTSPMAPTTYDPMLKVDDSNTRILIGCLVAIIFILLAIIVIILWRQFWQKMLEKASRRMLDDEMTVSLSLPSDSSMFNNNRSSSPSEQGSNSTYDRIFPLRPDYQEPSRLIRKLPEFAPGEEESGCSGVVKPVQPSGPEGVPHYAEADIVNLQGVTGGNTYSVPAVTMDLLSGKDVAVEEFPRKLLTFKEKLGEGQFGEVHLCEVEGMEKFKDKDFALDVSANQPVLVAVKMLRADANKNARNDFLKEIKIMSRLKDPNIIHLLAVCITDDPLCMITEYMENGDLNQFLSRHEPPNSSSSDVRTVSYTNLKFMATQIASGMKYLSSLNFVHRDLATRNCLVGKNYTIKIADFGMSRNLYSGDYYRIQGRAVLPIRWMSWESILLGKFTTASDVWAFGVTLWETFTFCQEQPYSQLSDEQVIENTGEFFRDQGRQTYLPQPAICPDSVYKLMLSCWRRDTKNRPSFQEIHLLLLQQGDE
Procedure: as §1

[6] = target: T6, CSNK1G2 (Homo sapiens, UniProt P78368); settings: read-out: Inhibitory effect (%) CSNK1G2
T6 construct: purchased Proqinase, Germany
T6 sequence (P78368 whole entry): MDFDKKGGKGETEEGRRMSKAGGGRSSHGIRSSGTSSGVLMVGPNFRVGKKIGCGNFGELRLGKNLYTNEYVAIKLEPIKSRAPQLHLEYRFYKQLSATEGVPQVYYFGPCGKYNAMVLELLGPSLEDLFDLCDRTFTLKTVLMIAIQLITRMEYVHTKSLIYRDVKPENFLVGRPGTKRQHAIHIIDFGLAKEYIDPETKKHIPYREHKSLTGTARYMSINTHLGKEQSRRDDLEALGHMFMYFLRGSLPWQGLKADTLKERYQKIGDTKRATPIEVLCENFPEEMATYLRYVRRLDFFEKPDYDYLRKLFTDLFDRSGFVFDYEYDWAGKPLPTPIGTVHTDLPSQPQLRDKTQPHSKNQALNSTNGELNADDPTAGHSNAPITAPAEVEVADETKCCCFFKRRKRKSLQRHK
Procedure: as §1

[7] = target: T7, CAMK2D (Homo sapiens, UniProt Q13557); settings: read-out: Inhibitory effect (%) CAMK2D
T7 construct: purchased Proqinase, Germany
T7 sequence (Q13557 whole entry): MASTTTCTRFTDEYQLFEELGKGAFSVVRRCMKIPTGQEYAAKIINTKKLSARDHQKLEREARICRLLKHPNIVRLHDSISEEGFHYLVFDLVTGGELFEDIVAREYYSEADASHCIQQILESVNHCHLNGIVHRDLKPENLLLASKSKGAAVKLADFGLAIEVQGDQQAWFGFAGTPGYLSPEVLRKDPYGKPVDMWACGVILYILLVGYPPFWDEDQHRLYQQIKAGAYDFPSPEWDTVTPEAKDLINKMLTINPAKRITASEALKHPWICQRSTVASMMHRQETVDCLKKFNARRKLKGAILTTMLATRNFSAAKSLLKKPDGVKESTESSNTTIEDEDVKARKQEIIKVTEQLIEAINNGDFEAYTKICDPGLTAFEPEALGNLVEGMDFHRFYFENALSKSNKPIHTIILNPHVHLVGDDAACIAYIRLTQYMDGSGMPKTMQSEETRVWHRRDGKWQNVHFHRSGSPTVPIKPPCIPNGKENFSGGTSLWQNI
Procedure: as §1

[8] = target: T8, RPS6KB1 (Homo sapiens, UniProt P23443); settings: read-out: Inhibitory effect (%) RPS6KB1
T8 construct: purchased ProQinase (33PanQinase Activity Assay)
T8 sequence (P23443 whole entry): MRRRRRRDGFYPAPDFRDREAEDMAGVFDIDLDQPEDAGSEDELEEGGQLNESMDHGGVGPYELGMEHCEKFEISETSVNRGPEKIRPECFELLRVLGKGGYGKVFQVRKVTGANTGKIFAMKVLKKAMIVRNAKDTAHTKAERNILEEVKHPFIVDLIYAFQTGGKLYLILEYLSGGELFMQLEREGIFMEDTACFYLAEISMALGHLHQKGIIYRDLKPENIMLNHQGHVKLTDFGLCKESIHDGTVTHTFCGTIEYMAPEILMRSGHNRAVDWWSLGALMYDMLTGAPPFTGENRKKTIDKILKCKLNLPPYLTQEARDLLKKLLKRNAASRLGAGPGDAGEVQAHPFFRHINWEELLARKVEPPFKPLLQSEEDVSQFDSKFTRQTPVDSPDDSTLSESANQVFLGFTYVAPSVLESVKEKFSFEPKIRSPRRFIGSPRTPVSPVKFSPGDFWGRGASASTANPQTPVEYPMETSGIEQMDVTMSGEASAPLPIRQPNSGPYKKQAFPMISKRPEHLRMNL
Procedure: as §1

[9] = target: T9, PTK2 (Homo sapiens, UniProt Q05397); settings: read-out: Inhibitory effect (%) PTK2
T9 construct: purchased ProQinase (33PanQinase Activity Assay)
T9 sequence (Q05397 whole entry): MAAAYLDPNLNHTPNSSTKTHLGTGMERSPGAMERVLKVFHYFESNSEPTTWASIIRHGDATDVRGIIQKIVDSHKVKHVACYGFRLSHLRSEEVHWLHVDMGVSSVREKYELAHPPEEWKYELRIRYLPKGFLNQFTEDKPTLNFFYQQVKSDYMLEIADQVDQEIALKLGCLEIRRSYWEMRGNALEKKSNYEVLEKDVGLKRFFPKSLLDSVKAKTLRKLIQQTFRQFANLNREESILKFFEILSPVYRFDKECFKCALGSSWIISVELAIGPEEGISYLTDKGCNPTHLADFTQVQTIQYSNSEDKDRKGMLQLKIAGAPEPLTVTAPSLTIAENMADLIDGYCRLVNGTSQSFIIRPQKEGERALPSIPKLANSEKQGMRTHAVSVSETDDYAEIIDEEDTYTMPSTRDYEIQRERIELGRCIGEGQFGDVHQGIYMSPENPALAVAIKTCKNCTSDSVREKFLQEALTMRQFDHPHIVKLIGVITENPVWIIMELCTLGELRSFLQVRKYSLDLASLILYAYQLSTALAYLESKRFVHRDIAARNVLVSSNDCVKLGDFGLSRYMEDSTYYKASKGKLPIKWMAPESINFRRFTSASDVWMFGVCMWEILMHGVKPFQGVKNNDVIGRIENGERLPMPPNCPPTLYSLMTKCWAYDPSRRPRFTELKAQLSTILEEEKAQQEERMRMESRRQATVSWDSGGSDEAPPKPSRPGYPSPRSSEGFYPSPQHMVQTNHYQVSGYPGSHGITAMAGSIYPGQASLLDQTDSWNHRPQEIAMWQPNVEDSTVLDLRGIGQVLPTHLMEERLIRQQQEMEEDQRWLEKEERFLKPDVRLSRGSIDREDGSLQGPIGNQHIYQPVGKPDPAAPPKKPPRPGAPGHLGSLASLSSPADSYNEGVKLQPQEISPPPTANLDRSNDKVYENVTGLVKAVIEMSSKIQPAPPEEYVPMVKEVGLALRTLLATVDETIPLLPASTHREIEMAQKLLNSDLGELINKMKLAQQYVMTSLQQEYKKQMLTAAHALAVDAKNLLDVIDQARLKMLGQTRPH
Procedure: as §1

T1 sequence (P49336 whole entry): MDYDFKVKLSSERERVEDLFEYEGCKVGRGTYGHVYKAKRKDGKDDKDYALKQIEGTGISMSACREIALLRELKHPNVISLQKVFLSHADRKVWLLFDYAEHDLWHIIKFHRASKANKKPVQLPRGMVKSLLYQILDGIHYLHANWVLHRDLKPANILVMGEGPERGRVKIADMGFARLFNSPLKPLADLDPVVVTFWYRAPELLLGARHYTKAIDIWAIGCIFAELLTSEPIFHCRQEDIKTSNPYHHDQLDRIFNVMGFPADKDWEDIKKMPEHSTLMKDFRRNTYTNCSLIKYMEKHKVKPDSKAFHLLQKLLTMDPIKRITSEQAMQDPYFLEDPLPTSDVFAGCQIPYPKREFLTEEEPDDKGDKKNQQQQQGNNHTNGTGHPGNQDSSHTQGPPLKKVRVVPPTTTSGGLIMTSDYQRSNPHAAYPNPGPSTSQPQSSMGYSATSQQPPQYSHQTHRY
T1 sequence (P24863 whole entry partner): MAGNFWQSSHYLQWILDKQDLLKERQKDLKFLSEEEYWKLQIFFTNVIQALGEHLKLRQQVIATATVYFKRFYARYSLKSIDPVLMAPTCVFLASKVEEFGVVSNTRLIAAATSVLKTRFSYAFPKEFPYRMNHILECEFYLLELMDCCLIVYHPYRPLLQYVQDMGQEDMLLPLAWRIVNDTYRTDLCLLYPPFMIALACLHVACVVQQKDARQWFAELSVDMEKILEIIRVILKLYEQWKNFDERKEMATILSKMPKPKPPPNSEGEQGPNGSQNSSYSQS

With `c1ccc2c(-c3cnn4cc(-c5ccc(N6CCNCC6)cc5)cnc34)ccnc2c1` [LDN-193189, reference compound] the inhibition at 0.1 µM [1] was -1.99%, the inhibition at 0.1 µM [2] was -20.3% and the inhibition at 0.1 µM [3] was -10.9%. The inhibition at 0.1 µM [4] was 7.07%, the inhibition at 0.1 µM [5] was 10.1% and the inhibition at 0.1 µM [6] was -23.1%. It also gave an inhibition at 0.1 µM [7] of -13.3%, an inhibition at 0.1 µM [8] of 13% and an inhibition at 0.1 µM [9] of 4.03%.
Compound `CN1CCC(=O)NCCNc2ccn3ncc(c3n2)-c2cccc(c2)C1` [OD29] has an inhibition at 0.1 µM [1] of -9.32%, an inhibition at 0.1 µM [2] of 7.49% and an inhibition at 0.1 µM [3] of -1.02%. For the same compound, the inhibition at 0.1 µM [4] was 11.4%, the inhibition at 0.1 µM [5] was 12.9% and the inhibition at 0.1 µM [6] was -0.5%. It also gave an inhibition at 0.1 µM [7] of 9.77%, an inhibition at 0.1 µM [8] of -3.52% and an inhibition at 0.1 µM [9] of -0.22%.
With `CN1CCc2cccc(c2)Nc2nccc(n2)N2CCCc3cc(ccc32)C1` [OD16] the inhibition at 0.1 µM [1] was -16.6%, the inhibition at 0.1 µM [2] was 33% and the inhibition at 0.1 µM [3] was -9.27%. The inhibition at 0.1 µM [4] was -6.98%, the inhibition at 0.1 µM [5] was 33.5% and the inhibition at 0.1 µM [6] was -15.6%. It also gave an inhibition at 0.1 µM [7] of -3.48%, an inhibition at 0.1 µM [8] of -15% and an inhibition at 0.1 µM [9] of 17.1%.
